This assay concerns P388 leukemia ip, CD2F1 mice, survival T/C. The assay is described as follows: NCI In Vivo Anticancer Drug Screen. Data for tumor model P388 Leukemia (intraperitoneal) in CD2F1 (CDF1) mice. Conditions: endpoint: median survival time, higher = longer survival. An outline of the steps:
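Mice carrying the transplanted tumor received test compound or vehicle. Survival was recorded in each group, and the value is the treated-group measurement divided by that of the vehicle-treated control group.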

The text below walks through data of PubChem BioAssay AID330 (DTP/NCI, 2004).

“And” between values parts separate entries of the source, which are not always exact repeats. Equal values may be shown once. Toxic doses and inconclusive results are not listed.

Regarding `COc1cc(NCc2ccc3nc(N)nc(N)c3c2C)cc(OC)c1OC` (tested in a mixture with another compound), the T/C by setting is: (dose: 2.6 mg/kg/injection, schedule: Q03HX024 (ip), vehicle: water) 166 % of control; (dose: 5.0 mg/kg/injection, schedule: Q03HX024 (ip), vehicle: water) 182 % of control; (dose: 5.2 mg/kg/injection, schedule: Q03HX024 (ip), vehicle: water) 192 % of control; (dose: 6.25 mg/kg/injection, schedule: Q03HX008 (sc), vehicle: water) 114 % of control; (dose: 6.9 mg/kg/injection, schedule: Q01DX009 (oral), vehicle: water) 119 % of control; (dose: 10.0 mg/kg/injection, schedule: Q03HX024 (ip), vehicle: water) 201 % of control. Also, the T/C runs as follows: (dose: 10.4 mg/kg/injection, schedule: Q03HX024 (ip), vehicle: water) 217 % of control; (dose: 12.5 mg/kg/injection, schedule: Q03HX008 (sc), vehicle: water) 118 % of control; (dose: 13.8 mg/kg/injection, schedule: Q01DX009 (ip), vehicle: water) 175 % of control; (dose: 13.8 mg/kg/injection, schedule: Q01DX009 (oral), vehicle: water) 156 % of control; (dose: 20.0 mg/kg/injection, schedule: Q03HX024 (ip), vehicle: water) 230 % of control; (dose: 20.8 mg/kg/injection, schedule: Q03HX024 (ip), vehicle: water) 233 % of control. Also, the T/C (dose: 25.0 mg/kg/injection, schedule: Q01DX005 (ip), vehicle: water) is 153 % of control and 154 % of control; the T/C (dose: 25.0 mg/kg/injection, schedule: Q01DX005 (sc), vehicle: water) was 118 % of control; the T/C (dose: 25.0 mg/kg/injection, schedule: Q03HX008 (sc), vehicle: water) is 123 % of control; the T/C (dose: 27.7 mg/kg/injection, schedule: Q01DX009 (ip), vehicle: water) was 185 % of control; the T/C (dose: 27.7 mg/kg/injection, schedule: Q01DX009 (oral), vehicle: water) is 163 % of control; the T/C (dose: 40.0 mg/kg/injection, schedule: Q03HX024 (ip), vehicle: water) was 223 % of control. Also, the T/C (dose: 41.6 mg/kg/injection, schedule: Q03HX024 (ip), vehicle: water) is 103 % of control; the T/C (dose: 50.0 mg/kg/injection, schedule: Q01DX005 (ip), vehicle: water) was 150 % of control and 160 % of control; the T/C (dose: 50.0 mg/kg/injection, schedule: Q01DX005 (iv), vehicle: water) was 166 % of control; the T/C (dose: 55.5 mg/kg/injection, schedule: Q01DX009 (ip), vehicle: water) is 208 % of control; the T/C (dose: 55.5 mg/kg/injection, schedule: Q01DX009 (oral), vehicle: water) is 211 % of control; the T/C (dose: 62.5 mg/kg/injection, schedule: Q01DX001 (ip), vehicle: water) is 109 % of control. Also, the T/C reads like this: (dose: 62.5 mg/kg/injection, schedule: Q01DX001 (iv), vehicle: water) 117 % of control; (dose: 75.0 mg/kg/injection, schedule: Q03HX008 (sc), vehicle: water) 163 % of control; (dose: 100.0 mg/kg/injection, schedule: Q01DX005 (ip), vehicle: water) 155 % of control and 173 % of control; (dose: 100.0 mg/kg/injection, schedule: Q01DX005 (sc), vehicle: water) 163 % of control; (dose: 111.1 mg/kg/injection, schedule: Q01DX009 (oral), vehicle: water) 98 % of control; (dose: 125.0 mg/kg/injection, schedule: Q01DX001 (ip), vehicle: water) 115 % of control. Besides, the T/C (dose: 200.0 mg/kg/injection, schedule: Q01DX005 (sc), vehicle: water) was 95 % of control; the T/C (dose: 50.0 micrograms per hour, schedule: Q#X X024 (sc), vehicle: water) was 120 % of control; the T/C (dose: 50.0 micrograms per hour, schedule: Q#X X048 (sc), vehicle: water) is 123 % of control; the T/C (dose: 50.0 micrograms per hour, schedule: Q#X X072 (sc), vehicle: water) was 163 % of control; the T/C (dose: 70.0 micrograms per hour, schedule: Q#X X006 (iv), vehicle: water) is 112 % of control; the T/C (dose: 85.0 micrograms per hour, schedule: Q#X X006 (iv), vehicle: water) is 121 % of control. Further, the T/C runs as follows: (dose: 100.0 micrograms per hour, schedule: Q#X X024 (sc), vehicle: water) 118 % of control; (dose: 100.0 micrograms per hour, schedule: Q#X X120 (sc), vehicle: water) 112 % of control; (dose: 200.0 micrograms per hour, schedule: Q#X X072 (sc), vehicle: water) 181 % of control; (dose: 200.0 micrograms per hour, schedule: Q#X X120 (sc), vehicle: water) 94 % of control.
Turning to `[Cl][Pt+2][Cl].[NH-]C(C(=O)O)C([NH-])C(=O)O` (stereo unspecified), the T/C is 96 % of control (dose: 6.25 mg/kg/injection, schedule: Q04DX002 (ip), vehicle: saline); 96 % of control (dose: 12.5 mg/kg/injection, schedule: Q04DX002 (ip), vehicle: saline); 100 % of control (dose: 25.0 mg/kg/injection, schedule: Q04DX002 (ip), vehicle: saline); 117 % of control (dose: 50.0 mg/kg/injection, schedule: Q04DX002 (ip), vehicle: saline); 101 % of control (dose: 100.0 mg/kg/injection, schedule: Q04DX002 (ip), vehicle: saline); 97 % of control (dose: 200.0 mg/kg/injection, schedule: Q04DX002 (ip), vehicle: saline).
As to `CC1(C#N)CCCC(c2ccccc2)(c2ccccc2)C1=O` (stereo unspecified), the T/C is 103 % of control (dose: 100.0 mg/kg/injection, schedule: Q04DX003 (ip), vehicle: Klucel (hydroxypropylcellulose) (HPC)); 98 % of control (dose: 200.0 mg/kg/injection, schedule: Q04DX003 (ip), vehicle: Klucel (hydroxypropylcellulose) (HPC)); 100 % of control (dose: 400.0 mg/kg/injection, schedule: Q04DX003 (ip), vehicle: Klucel (hydroxypropylcellulose) (HPC)).
Consider `C[C@]12CCC(=O)C=C1CC[C@H]1[C@@H]3C[C@@H](O)[C@](O)(C(=O)CO)[C@@]3(C)C[C@H](O)[C@@]12F`, for which the T/C is 109 % of control (dose: 25.0 mg/kg/injection, schedule: Q01DX009 (ip), vehicle: saline); 109 % of control (dose: 50.0 mg/kg/injection, schedule: Q01DX009 (ip), vehicle: saline); 109 % of control (dose: 100.0 mg/kg/injection, schedule: Q01DX009 (ip), vehicle: saline).
As to `COC(=O)C1=C(C(=O)OC)N2c3ccccc3-n3c(-c4ccccc4)cc(OC)c3C2(C)C(C(=O)OC)=C1C(=O)OC` (stereo unspecified), the T/C (dose: 100.0 mg/kg/injection, schedule: Q01DX001 (ip), vehicle: saline with Tween-80) was 99 % of control; the T/C (dose: 200.0 mg/kg/injection, schedule: Q01DX001 (ip), vehicle: saline with Tween-80) was 99 % of control; the T/C (dose: 400.0 mg/kg/injection, schedule: Q01DX001 (ip), vehicle: saline with Tween-80) was 92 % of control.
`CC(=O)Oc1c2c(c(C)c3ccccc13)C(=O)c1cccnc1C2=O`: the T/C by setting is: (dose: 100.0 mg/kg/injection, schedule: Q01DX001 (ip), vehicle: saline) 98 % of control; (dose: 200.0 mg/kg/injection, schedule: Q01DX001 (ip), vehicle: saline) 89 % of control; (dose: 400.0 mg/kg/injection, schedule: Q01DX001 (ip), vehicle: saline) 92 % of control.
Regarding `CCOC(=O)NC(NC(=O)OCC)c1ccccc1[N+](=O)[O-]`, the T/C (dose: 100.0 mg/kg/injection, schedule: Q04DX003 (ip), vehicle: saline) was 99 % of control; the T/C (dose: 200.0 mg/kg/injection, schedule: Q04DX003 (ip), vehicle: saline) is 99 % of control; the T/C (dose: 400.0 mg/kg/injection, schedule: Q04DX003 (ip), vehicle: saline) is 89 % of control.
For `NNS(=O)(=O)c1ccccc1`, the T/C is 103 % of control (dose: 50.0 mg/kg/injection, schedule: Q01DX009 (ip), vehicle: saline with Tween-80) and 103 % of control (dose: 100.0 mg/kg/injection, schedule: Q01DX009 (ip), vehicle: saline with Tween-80).
For the molecule `O=c1n2ccccc2nc2nc3ccccc3n12`, the T/C is 86 % of control (dose: 60.0 mg/kg/injection, schedule: Q01DX005 (ip), vehicle: saline with Tween-80) and 86 % of control (dose: 120.0 mg/kg/injection, schedule: Q01DX005 (ip), vehicle: saline with Tween-80).
Turning to `COc1cc(NCCN(CC(C)C)C2CCCC2)c2ncccc2c1`, the T/C (dose: 12.5 mg/kg/injection, schedule: Q01DX005 (ip), vehicle: saline) was 100 % of control and 106 % of control; the T/C (dose: 25.0 mg/kg/injection, schedule: Q01DX005 (ip), vehicle: saline) was 100 % of control and 114 % of control; the T/C (dose: 50.0 mg/kg/injection, schedule: Q01DX005 (ip), vehicle: saline) was 101 % of control and 103 % of control and 106 % of control; the T/C (dose: 100.0 mg/kg/injection, schedule: Q01DX005 (ip), vehicle: saline) was 121 % of control and 90 % of control and 96 % of control.
Regarding `NC1=C(O)C(=O)C(c2ccc3c(c2)CCC3)O1` (stereo unspecified), the T/C (dose: 60.0 mg/kg/injection, schedule: Q01DX005 (ip), vehicle: Klucel (hydroxypropylcellulose) (HPC)) is 91 % of control and the T/C (dose: 120.0 mg/kg/injection, schedule: Q01DX005 (ip), vehicle: Klucel (hydroxypropylcellulose) (HPC)) was 87 % of control.
